According to paper PMC12562379, “Facile Synthesis of N-vinylindoles via Knoevenagel Condensation: Molecular Features and Biological Activities” (International Journal of Molecular Sciences, 2025):
In brackets after ≈: the same amount, converted by molar mass. Like-named read-outs stand apart in the source and are kept apart here.

Legend:
[1] = system: S. aureus MRSA 12673; assay: Microbroth dilution assay; type: cell-based; conditions: Staphylococcus aureus
[2] = system: E. coli ATCC 8739; assay: Microbroth dilution assay; type: cell-based; conditions: Escherichia coli, ATCC8739
Procedure: (§1) The minimum inhibitory concentration (MIC) and minimum bactericidal/fungicidal concentration (MBC/MFC) of the tested compounds were determined by the microbroth dilution technique using 96-well plates based on the methodology described in the EUCAST (European Committee on Antimicrobial Susceptibility Testing) standards. Reference and clinical strains of Gram-positive (Staphylococcus aureus ATCC 6538, Staphylococuccus aureus MRSA 6347) and Gram-negative (Escherichia coli ATCC 8739) bacteria, and yeast (Candida albicans ATCC 10231, Candida glabrata ATCC 2001) were used for the assay. The studies were carried out in the Mueller–Hinton (MH) broth for bacteria and RPMI 1640 broth + MOPS (Sigma-Aldrich, Poland) buffer in the case of yeast. The dry test samples were dissolved in DMSO (dimethyl sulfoxide), resulting in a final concentration of 15 mg/mL, and then diluted in a geometric progression. Ampicillin (Sigma-Aldrich, Poland) acted as a control sample (512 to 4 µg/mL) for bacteria and ketoconazole (128 to 1 µg/mL) (Sigma-Aldrich, Poland) acted as a control sample for yeast. The cultures of microorganisms were prepared by transferring cells from the stock cultures to tubes with the appropriate broth and incubated with agitation in an aerobic atmosphere for 18 ± 2 h at 35 ± 1 °C; next, they were diluted to achieve an optical density corresponding to 5 × 105 (bacteria) or 2 × 105 (yeast) colony-forming units per mL (cfu/mL). An appropriate media (96 µL), along with the tested compounds with a final concentration range of 300–3.1 µg/mL (4 µL) and next microbial suspension (100 µL) were added to each well. Plates with samples were incubated in adequate conditions described above and microbial growth was assessed. […] (>90%; ketoconazole) but 50% (for other compounds) inhibits visible growth of yeasts. Next, as a control of microbial viability, 100 µL of the samples from each well without growth was inoculated on the MH or RPMI agar plates and incubated for 18 ± 2 h at 35 ± 1 °C and finally, the CFU was counted. The MBC/MFC was determined as the minimum concentration of compounds required to kill 99.9% the organisms.

[3] = system: S. aureus ATCC 6535; assay: Microbroth dilution assay; type: cell-based; conditions: Staphylococcus aureus, ATCC6535
[4] = system: C. albicans ATCC 10231; assay: Microbroth dilution assay; type: cell-based, Candida albicans; conditions: Candida albicans, ATCC10231, C. albicans ATCC 10231; for MFC: read-out: MFC; for MIC: read-out: MIC
Procedure: as §1

[5] = system: C. glabrata ATCC 2001; assay: Microbroth dilution assay; type: cell-based, Candida glabrata; conditions: Nakaseomyces glabratus, ATCC2001
Procedure: as §1

[6] = system: SKOV-3; assay: MTT assay, cytotoxic activity; type: cell-based, human; conditions: Homo sapiens, SK-OV-3; SKOV-3, MTT, 24 h, n = 12
Procedure: (§2) The human ovarian SKOV-3, gastric adenocarcinoma AGS, cervical HeLa cell lines and non-cancerous keratinocytes HaCaT were obtained from the American Type Culture Collection (ATCC, Manassas, VA, USA). The cell lines were cultured in McCoy’s Medium, Dulbecco’s Modified Eagle’s Medium/F12, and DMEM, respectively (Merck Millipore, Burlington, MA, USA). Penicillin (100 units/mL), streptomycin ([…]), and 10% (v/v) fetal bovine serum (FBS) were added to all the media. The cells were incubated at 37 °C and 5% CO2.
(§3) To estimate the cytotoxic activity of the obtained compounds 2a-i, MTT assay was used. The cells (5 × 10^3 cells/well) were treated with the compounds in a range of concentrations 1–150 µg/mL. […] After 24 h, MTT solution (0.5 mg/mL) was added to the cells. Formazan crystals were dissolved in DMSO and the absorbance was measured with a microtiter plate reader (Epoch, BioTek Instruments, Winooski, VT, USA).

[7] = system: HeLa; assay: MTT assay, cytotoxic activity; type: cell-based, human; conditions: Homo sapiens, 24 h, n = 12
Procedure: as §2, §3

[8] = system: AGS; assay: MTT assay, cytotoxic activity; type: cell-based, human; conditions: Homo sapiens, 24 h, n = 12
Procedure: as §2, §3

[9] = system: HaCaT; assay: MTT assay, cytotoxic activity on non-cancerous keratinocytes; type: cell-based; conditions: Homo sapiens, 24 h, n = 12
Procedure: as §2, §3

[10] = molecular target: T1, AGE2-BSA/sRAGE interaction (Homo sapiens, UniProt Q15109); assay: ELISA AGE2-BSA/sRAGE inhibitory screening; type: binding
T1 construct: purchased Creative BioMart
Procedure: The in vitro inhibitor screening of AGE2 (glyceraldehyde-modified AGE)-sRAGE interaction (soluble RAGE) was performed using a 96-well AGE-BSA-coated plate (Creative BioMart® ELISA kit, Shirley, NY, USA), according to the manufacturer’s instructions. 100 UA/mL soluble RAGE (sRAGE) was incubated with 100 μM of the tested compounds or 0.05% DMSO as a negative control on an AGE2-BSA-coated plate at room temperature for 60 min, shaking at 300 rpm on an orbital microplate shaker. After incubation, the wells were washed 4 times with wash buffer and horseradish peroxidase (HRP)-labeled anti-RAGE antibody was added and the plate was further incubated at room temperature for 60 min, shaking at 300 rpm on an orbital microplate shaker. After incubation, the wells were washed 4 times with wash buffer and the Substrate Reagent was added to each well. After an incubation at room temperature for 5 min, the HRP-labeled antibody sRAGE-AGE complex was then detected by measuring the absorbance at 450 nm using the microplate reader Varioskan (Thermo Fischer Scientific). These experiments were repeated two times.

[11] = system: HeLa, SKOV-3, AGS (and HaCaT) cell lines; assay: MTT assay, ranges stated over several cell lines; type: cell-based, human; conditions: Homo sapiens
Procedure: as §2, §3

[12] = S. aureus MRSA 12673, read-out: MIC
[13] = E. coli ATCC 8739, read-out: MIC
[14] = range over the cancer cell lines HeLa, SKOV-3 and AGS

T1 sequence (Q15109 23-342 limits assumed): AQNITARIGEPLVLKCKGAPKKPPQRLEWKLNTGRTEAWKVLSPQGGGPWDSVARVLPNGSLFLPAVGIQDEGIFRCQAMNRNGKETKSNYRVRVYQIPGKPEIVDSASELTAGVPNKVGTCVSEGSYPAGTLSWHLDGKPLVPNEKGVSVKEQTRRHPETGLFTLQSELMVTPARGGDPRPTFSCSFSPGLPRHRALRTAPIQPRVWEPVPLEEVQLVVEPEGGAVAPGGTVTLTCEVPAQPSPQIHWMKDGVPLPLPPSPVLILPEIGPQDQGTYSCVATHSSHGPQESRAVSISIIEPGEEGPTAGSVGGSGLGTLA

Row | SMILES | MIC ([1]; MRSA) | MBC ([1]; S. aureus MRSA 12673) | MIC [2] | MBC ([2]; E. coli ATCC 8739) | MBC [3] | MIC [3] | MIC [1, 12] | MIC [2, 13] | MFC [4] | MIC [4] | MFC [5] | MIC [5] | IC50 [6] | IC50 [7] | IC50 [8] | IC50 [9] | Inhibition (%) of AGE2-BSA/sRAGE interaction ([10]; 100 µM) | IC50 [11, 14] | inhibition at 100 µM [10] | IC50 ([11]; range over HeLa and SKOV-3 cell lines)
1 | CC1(C)S[C@@H]2[C@H](NC(=O)[C@H](N)c3ccccc3)C(=O)N2[C@H]1C(=O)O [Ampicillin, reference compound] | 512 µg/mL (≈ 1470 µM) | 512 µg/mL (≈ 1470 µM) | 128 µg/mL (≈ 366 µM) | 128 µg/mL (≈ 366 µM) | 8 µg/mL (≈ 22.9 µM) | 8 µg/mL (≈ 22.9 µM) | – | – | – | – | – | – | – | – | – | – | – | – | – | –
2 | C(=C(\C1=NCCN1)n1ccc2ccccc21)/c1ccccc1 [Compound 2a, (Z)-1-[1-(4,5-dihydro-1H-imidazol-2-yl)-2-(phenyl)vinyl]-1H-indole] | – | > 220 µg/mL | – | 220 µg/mL (≈ 766 µM) | 220 µg/mL (≈ 766 µM) | 110 µg/mL (≈ 383 µM) | 220 µg/mL (≈ 766 µM) | 220 µg/mL (≈ 766 µM) | > 220 µg/mL | > 220 µg/mL | > 220 µg/mL | > 220 µg/mL | 9.81 ± 0.45 µg/mL (≈ 34.1 µM) | 8.96 ± 0.33 µg/mL (≈ 31.2 µM) | 17.2 ± 0.68 µg/mL (≈ 60 µM) | 11.7 ± 1.31 µg/mL (≈ 40.7 µM) | – | – | – | –
3 | Cc1ccc(/C=C(/C2=NCCN2)n2ccc3ccccc32)cc1 [Compound 2b, (Z)-1-[1-(4,5-dihydro-1H-imidazol-2-yl)-2-(p-tolyl)vinyl]-1H-indole] | – | > 220 µg/mL | – | > 220 µg/mL | 110 µg/mL (≈ 365 µM) | 55 µg/mL (≈ 182 µM) | 220 µg/mL (≈ 730 µM) | 220 µg/mL (≈ 730 µM) | > 220 µg/mL | 220 µg/mL (≈ 730 µM) | > 220 µg/mL | 220 µg/mL (≈ 730 µM) | 9.69 ± 0.62 µg/mL (≈ 32.2 µM) | 8.19 ± 0.4 µg/mL (≈ 27.2 µM) | 16.2 ± 1.2 µg/mL (≈ 53.8 µM) | 12.1 ± 0.55 µg/mL (≈ 40.1 µM) | devoid of activity and lack | 8.19 to 16.2 µg/mL (≈ 27.2 to 53.8 µM) | – | –
4 | COc1ccc(/C=C(/C2=NCCN2)n2ccc3ccccc32)cc1 [Compound 2c, (Z)-1-[1-(4,5-dihydro-1H-imidazol-2-yl)-2-(4-methoxyphenyl)vinyl]-1H-indole] | – | > 220 µg/mL | – | > 220 µg/mL | 110 µg/mL (≈ 347 µM) | 110 µg/mL (≈ 347 µM) | > 220 µg/mL | 220 µg/mL (≈ 693 µM) | > 220 µg/mL | > 220 µg/mL | > 220 µg/mL | > 220 µg/mL | 8.8 ± 0.46 µg/mL (≈ 27.7 µM) | 7.86 ± 0.59 µg/mL (≈ 24.8 µM) | 10.29 ± 0.08 µg/mL (≈ 32.4 µM) | 9.11 ± 1.58 µg/mL (≈ 28.7 µM) | – | – | – | –
5 | Fc1ccc(/C=C(/C2=NCCN2)n2ccc3ccccc32)cc1 [Compound 2d, (Z)-1-[1-(4,5-dihydro-1H-imidazol-2-yl)-2-(4-fluorophenyl)vinyl]-1H-indole] | – | > 240 µg/mL | – | > 240 µg/mL | 240 µg/mL (≈ 786 µM) | 120 µg/mL (≈ 393 µM) | 120 µg/mL (≈ 393 µM) | 240 µg/mL (≈ 786 µM) | > 240 µg/mL | > 240 µg/mL | > 240 µg/mL | > 240 µg/mL | 10.2 ± 0.45 µg/mL (≈ 33.6 µM) | 8.65 ± 0.68 µg/mL (≈ 28.3 µM) | 15.5 ± 0.72 µg/mL (≈ 50.7 µM) | 7.37 ± 0.28 µg/mL (≈ 24.1 µM) | – | 8.65 to 15.5 µg/mL (≈ 28.3 to 50.7 µM) | 12% | –
6 | Clc1ccc(/C=C(/C2=NCCN2)n2ccc3ccccc32)cc1 [Compound 2e, (Z)-1-[2-(4-chlorophenyl)-1-(4,5-dihydro-1H-imidazol-2-yl)vinyl]-1H-indole] | – | 240 µg/mL (≈ 746 µM) | – | 240 µg/mL (≈ 746 µM) | 60 µg/mL (≈ 186 µM) | 30 µg/mL (≈ 93.2 µM) | 60 µg/mL (≈ 186 µM) | 120 µg/mL (≈ 373 µM) | 240 µg/mL (≈ 746 µM) | 120 µg/mL (≈ 373 µM) | 240 µg/mL (≈ 746 µM) | 240 µg/mL (≈ 746 µM) | 4.4 ± 0.16 µg/mL (≈ 13.7 µM) | 3.13 ± 0.3 µg/mL (≈ 9.73 µM) | 11.4 ± 0.74 µg/mL (≈ 35.3 µM) | 3.43 ± 0.05 µg/mL (≈ 10.7 µM) | – | – | 34.7% | 3.13 to 4.4 µg/mL (≈ 9.73 to 13.7 µM)
